Values belong to the compound of their own block, whether it stands above or below them.
Assays:
[1] = target: Vascular endothelial growth factor receptor 2 (Homo sapiens, UniProt P35968); test: Inhibition of human VEGFR2 expressed in Sf9 cells
HUVEC = test: cells; details: Homo sapiens, 3 h
Description: Antiangiogenic activity in HUVEC assessed as inhibition of VEGF-induced cell proliferation by [3H]thymidine incorporation assay

HeLa = test: Antiangiogenic activity against human HeLa cells assessed as inhibition of cell proliferation by [3H]thymidine incorporation assay; assay type: functional, cell-based
FaDu [2] = test: Antiangiogenic activity against human FADU cells assessed as inhibition of cell proliferation by [3H]thymidine incorporation assay; assay type: functional, cell-based
[3] = target: Vascular endothelial growth factor receptor 1 (Homo sapiens, UniProt P17948)
Vascular endothelial growth factor receptor 1, sequence (P17948 whole entry): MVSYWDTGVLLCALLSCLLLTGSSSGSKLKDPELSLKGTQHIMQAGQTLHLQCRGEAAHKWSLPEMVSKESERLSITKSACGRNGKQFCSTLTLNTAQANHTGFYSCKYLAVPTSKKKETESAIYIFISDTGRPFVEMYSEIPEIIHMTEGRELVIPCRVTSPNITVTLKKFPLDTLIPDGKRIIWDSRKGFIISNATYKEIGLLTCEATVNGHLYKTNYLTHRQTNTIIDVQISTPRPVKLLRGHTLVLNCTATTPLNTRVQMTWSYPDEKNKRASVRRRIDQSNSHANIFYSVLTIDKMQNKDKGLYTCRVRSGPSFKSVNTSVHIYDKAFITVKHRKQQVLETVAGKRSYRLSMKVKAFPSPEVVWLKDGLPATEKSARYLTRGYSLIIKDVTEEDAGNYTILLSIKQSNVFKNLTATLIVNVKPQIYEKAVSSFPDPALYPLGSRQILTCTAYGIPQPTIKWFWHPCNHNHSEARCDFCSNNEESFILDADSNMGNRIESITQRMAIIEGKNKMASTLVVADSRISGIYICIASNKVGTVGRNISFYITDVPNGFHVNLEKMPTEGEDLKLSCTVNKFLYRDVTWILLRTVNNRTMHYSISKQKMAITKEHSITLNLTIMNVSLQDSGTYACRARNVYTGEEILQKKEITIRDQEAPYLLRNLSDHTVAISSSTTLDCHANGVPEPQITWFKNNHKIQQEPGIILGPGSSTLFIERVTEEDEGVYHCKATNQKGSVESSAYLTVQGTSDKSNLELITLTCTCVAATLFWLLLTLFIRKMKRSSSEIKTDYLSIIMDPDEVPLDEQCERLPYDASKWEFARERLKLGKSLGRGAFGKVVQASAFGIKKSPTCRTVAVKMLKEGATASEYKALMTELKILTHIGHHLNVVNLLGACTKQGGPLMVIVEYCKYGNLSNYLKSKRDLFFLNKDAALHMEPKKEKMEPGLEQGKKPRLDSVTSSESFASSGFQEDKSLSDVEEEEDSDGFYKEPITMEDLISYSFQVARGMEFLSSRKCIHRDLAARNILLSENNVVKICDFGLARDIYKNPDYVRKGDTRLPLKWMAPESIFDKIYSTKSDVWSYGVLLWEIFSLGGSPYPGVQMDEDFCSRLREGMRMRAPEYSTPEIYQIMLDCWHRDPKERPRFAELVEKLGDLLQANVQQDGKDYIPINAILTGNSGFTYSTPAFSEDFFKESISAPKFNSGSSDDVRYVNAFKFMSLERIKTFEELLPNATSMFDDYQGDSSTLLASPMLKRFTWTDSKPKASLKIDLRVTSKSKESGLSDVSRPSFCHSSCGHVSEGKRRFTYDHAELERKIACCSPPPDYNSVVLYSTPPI
Description: Inhibition of human VEGFR1

[4] = target: Serine/threonine-protein kinase PLK1 (Homo sapiens, UniProt P53350); test: Inhibition of human Plk1
Serine/threonine-protein kinase PLK1, sequence (P53350 whole entry): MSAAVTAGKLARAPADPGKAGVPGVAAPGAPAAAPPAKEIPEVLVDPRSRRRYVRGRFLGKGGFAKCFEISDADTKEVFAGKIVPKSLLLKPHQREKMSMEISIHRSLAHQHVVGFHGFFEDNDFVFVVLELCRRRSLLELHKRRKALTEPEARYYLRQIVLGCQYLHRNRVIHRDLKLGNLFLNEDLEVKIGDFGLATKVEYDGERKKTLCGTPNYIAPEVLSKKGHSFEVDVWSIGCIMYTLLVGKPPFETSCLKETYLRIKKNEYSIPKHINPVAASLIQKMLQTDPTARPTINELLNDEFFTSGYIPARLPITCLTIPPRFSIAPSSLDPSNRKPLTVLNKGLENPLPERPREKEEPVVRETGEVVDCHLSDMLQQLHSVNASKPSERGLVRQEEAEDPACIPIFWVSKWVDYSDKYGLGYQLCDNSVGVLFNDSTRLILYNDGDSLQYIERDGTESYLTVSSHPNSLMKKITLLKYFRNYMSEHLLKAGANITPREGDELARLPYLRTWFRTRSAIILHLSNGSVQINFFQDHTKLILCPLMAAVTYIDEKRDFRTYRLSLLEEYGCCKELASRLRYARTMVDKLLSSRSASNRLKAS

[5] = target: Epidermal growth factor receptor (Homo sapiens, UniProt P00533); test: Inhibition of human EGFR
[6] = target: Cyclin-dependent kinase 4 (Homo sapiens, UniProt P11802); test: Inhibition of human CDK4
Cyclin-dependent kinase 4, sequence (P11802 whole entry): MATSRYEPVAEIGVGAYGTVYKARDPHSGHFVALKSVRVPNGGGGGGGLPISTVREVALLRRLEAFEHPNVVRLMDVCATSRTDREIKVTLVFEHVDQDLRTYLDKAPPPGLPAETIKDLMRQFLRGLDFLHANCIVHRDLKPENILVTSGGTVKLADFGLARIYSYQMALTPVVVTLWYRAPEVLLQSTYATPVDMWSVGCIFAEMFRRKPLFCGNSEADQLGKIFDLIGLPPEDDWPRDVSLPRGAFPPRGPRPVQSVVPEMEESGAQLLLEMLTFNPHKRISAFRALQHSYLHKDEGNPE

[7] = target: Cyclin-dependent kinase 1 (Homo sapiens, UniProt P06493); test: Inhibition of human CDK1
Cyclin-dependent kinase 1, sequence (P06493 whole entry): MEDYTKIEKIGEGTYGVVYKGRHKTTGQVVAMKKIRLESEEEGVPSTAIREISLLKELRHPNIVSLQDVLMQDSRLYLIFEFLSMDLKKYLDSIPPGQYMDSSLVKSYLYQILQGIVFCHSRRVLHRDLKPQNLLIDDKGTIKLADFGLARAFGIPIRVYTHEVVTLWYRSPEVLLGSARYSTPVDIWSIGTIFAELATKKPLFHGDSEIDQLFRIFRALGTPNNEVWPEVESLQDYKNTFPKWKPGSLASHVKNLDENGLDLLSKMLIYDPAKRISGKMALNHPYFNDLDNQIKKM

[8] = Plasma concentration in NMRI nu/nu mouse at 40 mg/kg, po administered as single dose after 2 hrs; assay type: ADME, organism-based; design: dose 40 mg/kg, route oral
FaDu [9] = test: Antitumor activity against human FADU cells xenografted NMRI nu/nu mouse assessed as inhibition of mean tumor volume growth at 100 mg/kg, po qd after 21 days relative to control; assay type: functional
[10] = target: Fibroblast growth factor receptor 1 (Homo sapiens, UniProt P11362)
Fibroblast growth factor receptor 1, sequence (P11362 whole entry): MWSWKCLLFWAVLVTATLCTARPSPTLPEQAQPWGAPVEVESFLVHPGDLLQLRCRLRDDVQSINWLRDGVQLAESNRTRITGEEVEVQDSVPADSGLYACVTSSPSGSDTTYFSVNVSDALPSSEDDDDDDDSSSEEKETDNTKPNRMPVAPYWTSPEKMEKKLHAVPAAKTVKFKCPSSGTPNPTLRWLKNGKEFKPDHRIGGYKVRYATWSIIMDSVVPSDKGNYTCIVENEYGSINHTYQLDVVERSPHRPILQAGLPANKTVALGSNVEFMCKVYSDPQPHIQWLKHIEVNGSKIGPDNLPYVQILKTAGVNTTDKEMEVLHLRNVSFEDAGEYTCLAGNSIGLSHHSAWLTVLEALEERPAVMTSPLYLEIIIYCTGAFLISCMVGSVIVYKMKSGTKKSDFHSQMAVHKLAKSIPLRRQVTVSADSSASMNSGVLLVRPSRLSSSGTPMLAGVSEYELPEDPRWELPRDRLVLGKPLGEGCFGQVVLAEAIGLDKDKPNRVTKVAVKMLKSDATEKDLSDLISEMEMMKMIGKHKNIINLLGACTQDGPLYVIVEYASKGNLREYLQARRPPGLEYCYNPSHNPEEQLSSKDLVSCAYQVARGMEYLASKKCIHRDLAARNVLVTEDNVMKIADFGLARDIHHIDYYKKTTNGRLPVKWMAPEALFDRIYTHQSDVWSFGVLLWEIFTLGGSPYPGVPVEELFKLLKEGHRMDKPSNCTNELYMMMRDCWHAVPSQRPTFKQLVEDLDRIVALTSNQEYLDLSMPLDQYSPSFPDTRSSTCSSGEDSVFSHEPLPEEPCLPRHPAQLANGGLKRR
Description: Inhibition of human FGFR1

[11] = target: Vascular endothelial growth factor receptor 3 (Homo sapiens, UniProt P35916)
Description: Inhibition of human VEGFR3

Insulin receptor = Insulin receptor (Homo sapiens, UniProt P06213); test: Inhibition of human InsR
[12] = Plasma concentration in NMRI nu/nu mouse at 40 mg/kg, po administered as single dose after 24 hrs; assay type: ADME, organism-based; design: dose 40 mg/kg, route oral
FaDu [13] = test: Antitumor activity against human FADU cells xenografted NMRI nu/nu mouse assessed as inhibition of mean tumor volume growth at 50 mg/kg, po bid after 21 days relative to control; assay type: functional
[14] = target: Platelet-derived growth factor receptor alpha (Homo sapiens, UniProt P16234)
Description: Inhibition of human PDGFRalpha

FaDu [15] = test: Antitumor activity against human FADU cells xenografted NMRI nu/nu mouse assessed as inhibition of mean tumor volume growth at 50 mg/kg, po qd after 21 days relative to control; assay type: functional
[16] = target: Receptor tyrosine-protein kinase erbB-2 (Homo sapiens, UniProt P04626); test: Inhibition of human HER2
[17] = target: Insulin-like growth factor 1 receptor (Homo sapiens, UniProt P08069); test: Inhibition of human IGFR1
Calu-6 [18] = test: Antiangiogenic activity against human Calu6 cells assessed as inhibition of cell proliferation by [3H]thymidine incorporation assay; assay type: functional, cell-based
[19] = Clearance in NMRI nu/nu mouse at 50 mg/kg, po or 10 mg/kg, iv administered as single dose; assay type: ADME, organism-based; details: in vivo
HT-29 = test: Antitumor activity against human HT-29 cells xenografted NMRI nu/nu mouse assessed as inhibition of mean tumor volume growth at 100 mg/kg, po qd after 21 days relative to control; assay type: functional
CAKI-1 [20] = test: Antitumor activity against human Caki1 cells xenografted NMRI nu/nu mouse assessed as inhibition of mean tumor volume growth at 50 mg/kg, po qd after 21 days relative to control; assay type: functional
[21] = Antitumor activity against human PAC120 cells xenografted NMRI nu/nu mouse assessed as inhibition of mean tumor volume growth at 100 mg/kg, po qd after 21 days relative to control; assay type: functional
[22] = Half life in NMRI nu/nu mouse at 50 mg/kg, po administered as single dose; assay type: ADME, organism-based; design: dose 50 mg/kg, route oral; details: in vivo
[23] = Cmax in NMRI nu/nu mouse at 50 mg/kg, po administered as single dose; assay type: ADME, organism-based; design: dose 50 mg/kg, route oral; details: in vivo
SK-OV-3 = test: Antitumor activity against human SKOV3 cells xenografted NMRI nu/nu mouse assessed as inhibition of mean tumor volume growth at 50 mg/kg, po qd after 21 days relative to control; assay type: functional
CAKI-1 [24] = test: Antitumor activity against human Caki1 cells xenografted NMRI nu/nu mouse assessed as inhibition of mean tumor volume growth at 10 mg/kg, po qd after 21 days relative to control; assay type: functional
FaDu [25] = test: Antitumor activity against human FADU cells xenografted NMRI nu/nu mouse assessed as inhibition of mean tumor volume growth at 25 mg/kg, po qd after 21 days relative to control; assay type: functional
[26] = Volume of distribution in NMRI nu/nu mouse at 50 mg/kg, po or 10 mg/kg, iv administered as single dose; assay type: ADME, organism-based; details: in vivo
CAKI-1 [27] = test: Antitumor activity against human Caki1 cells xenografted NMRI nu/nu mouse assessed as inhibition of mean tumor volume growth at 100 mg/kg, po qd after 21 days relative to control; assay type: functional
[28] = Plasma concentration in NMRI nu/nu mouse at 50 mg/kg, po administered as single dose after 24 hrs; assay type: ADME, organism-based; design: dose 50 mg/kg, route oral
Mus musculus = test: AUC in NMRI nu/nu mouse at 50 mg/kg, po administered as single dose; assay type: ADME, organism-based, Plasma; design: dose 50 mg/kg, route oral; details: in vivo
[29] = Plasma concentration in NMRI nu/nu mouse at 50 mg/kg, po administered as single dose after 2 hrs; assay type: ADME, organism-based; design: dose 50 mg/kg, route oral
FaDu [30] = test: Antitumor activity against human FADU cells xenografted NMRI nu/nu mouse assessed as inhibition of mean tumor volume growth at 10 mg/kg, po qd after 21 days relative to control; assay type: functional
[31] = Oral bioavailability in NMRI nu/nu mouse at 50 mg/kg administered as single dose; assay type: ADME, organism-based; details: in vivo
Calu-6 [32] = test: Antitumor activity against human Calu6 cells xenografted NMRI nu/nu mouse assessed as inhibition of mean tumor volume growth at 50 mg/kg, po qd after 21 days relative to control; assay type: functional

Vascular endothelial growth factor receptor 2, sequence (P35968 whole entry): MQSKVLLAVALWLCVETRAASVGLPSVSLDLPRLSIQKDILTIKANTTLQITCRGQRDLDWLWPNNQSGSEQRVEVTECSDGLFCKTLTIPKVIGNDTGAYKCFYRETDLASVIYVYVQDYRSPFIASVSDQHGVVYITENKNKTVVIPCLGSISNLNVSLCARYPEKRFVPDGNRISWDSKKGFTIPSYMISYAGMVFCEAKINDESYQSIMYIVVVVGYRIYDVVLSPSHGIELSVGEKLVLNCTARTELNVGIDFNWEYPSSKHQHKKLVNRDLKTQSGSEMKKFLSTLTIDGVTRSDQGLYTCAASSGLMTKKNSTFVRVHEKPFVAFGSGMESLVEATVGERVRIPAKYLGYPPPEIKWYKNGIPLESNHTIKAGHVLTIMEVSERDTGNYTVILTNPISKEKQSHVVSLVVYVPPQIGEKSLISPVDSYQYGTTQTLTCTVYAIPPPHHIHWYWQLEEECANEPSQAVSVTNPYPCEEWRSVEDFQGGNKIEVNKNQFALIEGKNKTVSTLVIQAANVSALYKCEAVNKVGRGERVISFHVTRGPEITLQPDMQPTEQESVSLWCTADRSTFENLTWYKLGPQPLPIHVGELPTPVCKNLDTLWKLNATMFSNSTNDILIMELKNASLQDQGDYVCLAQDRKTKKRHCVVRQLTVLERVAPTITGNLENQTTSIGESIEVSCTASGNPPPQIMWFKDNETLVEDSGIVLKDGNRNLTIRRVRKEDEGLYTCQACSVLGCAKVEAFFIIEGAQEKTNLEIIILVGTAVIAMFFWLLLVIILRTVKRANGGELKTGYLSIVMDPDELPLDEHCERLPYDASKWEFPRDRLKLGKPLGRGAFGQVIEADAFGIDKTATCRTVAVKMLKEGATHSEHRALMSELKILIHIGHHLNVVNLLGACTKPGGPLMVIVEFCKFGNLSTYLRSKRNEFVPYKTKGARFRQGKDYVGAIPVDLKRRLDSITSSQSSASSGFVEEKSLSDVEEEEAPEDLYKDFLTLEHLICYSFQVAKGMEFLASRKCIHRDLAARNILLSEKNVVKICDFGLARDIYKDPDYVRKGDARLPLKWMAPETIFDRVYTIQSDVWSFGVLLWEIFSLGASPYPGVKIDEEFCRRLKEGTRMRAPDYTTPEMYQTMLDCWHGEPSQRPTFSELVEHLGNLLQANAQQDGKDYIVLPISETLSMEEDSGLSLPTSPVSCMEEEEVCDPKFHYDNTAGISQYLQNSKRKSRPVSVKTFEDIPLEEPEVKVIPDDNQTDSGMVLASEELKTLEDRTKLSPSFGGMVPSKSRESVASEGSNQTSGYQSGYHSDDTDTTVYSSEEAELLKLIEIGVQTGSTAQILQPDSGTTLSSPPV

IC50 [1]: 12 nM
SMILES: COC(=O)c1ccc2c(c1)NC(=O)/C2=C(\Nc1ccc(N(CCN(C)C)C(C)=O)cc1)c1ccccc1
EC50 (HUVEC): 15 nM

IC50 [1]: 248 nM
SMILES: N#Cc1ccc2c(c1)NC(=O)/C2=C(\Nc1ccc(CN2CCCCC2)cc1)c1ccccc1
EC50 (HUVEC): 281 nM

IC50 [1]: 129 nM
SMILES: O=C1Nc2cc(Cl)ccc2/C1=C(/Nc1ccc(CN2CCCCC2)cc1)c1ccccc1
EC50 (HUVEC): 49 nM

IC50 [1]: 150 nM
SMILES: COC(=O)c1ccc2c(c1)NC(=O)/C2=C(\Nc1ccc(N(C)S(C)(=O)=O)cc1)c1ccccc1

IC50 [1]: 8000 nM
SMILES: COC(=O)c1ccc2c(c1)NC(=O)/C2=C(\Nc1ccccc1)c1ccccc1

IC50 [1]: 1230 nM
SMILES: CC(C)NC(=O)c1ccc2c(c1)NC(=O)/C2=C(\Nc1ccc(CN2CCCCC2)cc1)c1ccccc1
EC50 (HUVEC): 1070 nM

IC50 [1]: 61 nM | EC50 (HeLa): > 1000 nM | IC50 [3]: 82 nM | IC50 [4]: > 10000 nM | IC50 [5]: > 10000 nM | IC50 [6]: > 10000 nM | IC50 [7]: > 10000 nM | concentration at 2 h [8]: 1250 nM | IC50 [10]: 50 nM | IC50 [11]: 10 nM | IC50 (Insulin receptor): > 10000 nM | concentration at 24 h [12]: 16 nM | IC50 [14]: 20 nM | IC50 [16]: > 10000 nM | IC50 [17]: > 10000 nM | EC50 (Calu-6 [18]): > 1000 nM
SMILES: COC(=O)c1ccc2c(c1)NC(=O)/C2=C(\Nc1ccc(CN(C)C(=O)N(C)C)cc1)c1ccccc1
EC50 (FaDu [2]): > 1000 nM | IC50 (HUVEC): 22 nM | T/C (FaDu [9]): 13% | T/C (FaDu [13]): 11% | T/C (FaDu [15]): 31%

IC50 [1]: 24 nM
SMILES: COC(=O)c1ccc2c(c1)NC(=O)/C2=C(\Nc1ccc(C(=O)N(C)CCN(C)C)cc1)c1ccccc1
EC50 (HUVEC): 25 nM

clearance [19]: 173 mL/min/kg | EC50 (HeLa): > 1000 nM | IC50 [4]: > 10000 nM | half-life [22]: 5 h | Cmax [23]: 1090 nM | Vd [26]: 32 L/kg | concentration at 24 h [28]: 8 nM | AUC (Mus musculus): 2.75 µM·h | concentration at 2 h [29]: 923 nM | bioavailability [31]: 45% | EC50 (Calu-6 [18]): > 1000 nM
SMILES: COC(=O)c1ccc2c(c1)NC(=O)/C2=C(\Nc1ccc(N(C)C(=O)CN2CCN(C)CC2)cc1)c1ccccc1 [NINTEDANIB]
T/C (HT-29): 16% | EC50 (FaDu [2]): > 1000 nM | T/C (CAKI-1 [20]): 25% | T/C [21]: 34% | T/C (SK-OV-3): 19% | T/C (CAKI-1 [24]): 71% | T/C (FaDu [25]): 46% | T/C (CAKI-1 [27]): 16% | IC50 (HUVEC): 10 nM | T/C (FaDu [9]): 11% | T/C (FaDu [30]): 82% | T/C (FaDu [13]): 15% | T/C (Calu-6 [32]): 24% | T/C (FaDu [15]): 14%

More lines, now with the values behind:

SMILES: COC(=O)c1ccc2c(c1)NC(=O)/C2=C(\Nc1ccc(N(CCN(C)C)S(C)(=O)=O)cc1)c1ccccc1
IC50 [1]: 23 nM | EC50 (HUVEC): 14 nM

SMILES: CC(=O)c1ccc2c(c1)NC(=O)/C2=C(\Nc1ccc(CN2CCCCC2)cc1)c1ccccc1
IC50 [1]: 1750 nM

SMILES: O=C1Nc2ccccc2/C1=C(/Nc1ccc(CN2CCCCC2)cc1)c1ccccc1
IC50 [1]: 2110 nM

SMILES: O=C1Nc2cc(C(=O)O)ccc2/C1=C(/Nc1ccc(CN2CCCCC2)cc1)c1ccccc1
IC50 [1]: > 1000 nM

SMILES: O=C1Nc2cc([N+](=O)[O-])ccc2/C1=C(/Nc1ccc(CN2CCCCC2)cc1)c1ccccc1
IC50 [1]: 7 nM | EC50 (HeLa): > 1000 nM | EC50 (HUVEC): 60 nM

SMILES: COC(=O)c1ccc2c(c1)NC(=O)/C2=C(\Nc1ccc(N(C)C(=O)Cn2ccnc2)cc1)c1ccccc1
IC50 [1]: 6 nM | EC50 (HUVEC): 52 nM

SMILES: CCOC(=O)c1ccc2c(c1)NC(=O)/C2=C(\Nc1ccc(CN2CCCCC2)cc1)c1ccccc1
IC50 [1]: 109 nM | EC50 (HeLa): > 1000 nM | EC50 (HUVEC): 47 nM

SMILES: COC(=O)c1ccc2c(c1)NC(=O)/C2=C(\Nc1ccc(N(CCCN(C)C)C(C)=O)cc1)c1ccccc1
IC50 [1]: 9 nM | EC50 (HUVEC): 15 nM
